Key:
Type in all cases: in vivo, mouse
male mice [1] = assay: Subthreshold social defeat stress (SSDS) followed by social interaction test; conditions: for stress-induced social interaction deficits: chronic treatment (silastic implant or minipump), orchiectomized male mice + SSDS; for social interaction (sociability) deficits: orchiectomized male mice
Protocol: (§1) Subthreshold social defeat stress: Retired CD1 breeders are singly housed and used as aggressors. Experimental mice are introduced to the home cage of an aggressor for 2 min to initiate the physical attack phase. Afterward, mice are transferred and housed on the opposite side of the aggressor, in the same cage separated by a perforated Plexiglass divider for 15 mins in order to maintain sensory contact. This process is repeated 3 times over a period of ~50 min.
(§2) Social Interaction: Mice are placed in a rectangular box (40 cm length×30 cm width×35 cm height; Stoelting, IL) divided into three compartments (two equal-sized end-chambers and a middle chamber) for five minute habituation phase (10-15 lux). After the habituation phase, two small wire cages are introduced into the two end chambers, one containing an unfamiliar, non-aggressive CD1 mouse and the other remaining empty. The amount of time mice spent sniffing each cage during the five-min test is assessed using CleverSys tracking software (CleverSys, Inc, Reston VA, USA).
(§3) For the chronic administration paradigms, silastic tubes (1.02 mm inner diameter×2.16 mm outer diameter) were filled with testosterone (10 mm) or 17β-Estradiol (E2; 1,3 and 10 mm; Sigma-Aldrich, St. Louis, MO, USA). Silastic implants were primed in 0.9% saline at 37° C. overnight prior to their subcutaneous use. Letrozole (1 mg/kg/day; Sigma-Aldrich, St. Louis, MO, USA) was dissolved in propylene glycol (MP Biomedicals, Santa Ana, CA, USA) and administered through ALZET minipumps (Model 1002, 0.25 μl/hour, 14 days; Cupertino, CA, USA). DHED (synthesized using previously described methods) was dissolved in 0.9% saline and administered through ALZET minipumps (Model 1002, 0.25 μl/hour, 14 days; Cupertino, CA, USA) at a dose of […]. Flutamide was administered through 1.5 mg slow-release subcutaneous pellets (Innovative Research of America, Sarasota, FL, USA). For acute administration, 17β-Estradiol (E2; 10 and […]) was dissolved in sesame oil (4 ml/kg, s.c.; Sigma-Aldrich, St. Louis, MO, USA).
(§4) Retired CD1 breeders were singly housed and used as aggressors. Two days prior to the start of the experiment, experimental mice were also singly housed. The stress procedure was performed using previously described methods. Briefly, experimental mice were introduced to the home cage of an aggressor for 2 min to initiate the physical attack phase. Afterward, mice were transferred and housed on the opposite side of the aggressor, in the same cage separated by a perforated Plexiglass divider for 15 mins in order to maintain sensory contact. This process was repeated 3 times over a period of ~50 min. Following the completion of the third cycle, mice were placed back in their home cages.
(§5) Acute E2 was administered 45 min prior to the initiation of stress or 5 min after the completion of stress. For the optogenetic stimulation, ChR2 and YFP-injected mice received a 4 Hz, 5 ms pulse width, 10-15 mW 470 nm light stimulation for 45 min prior to the initiation of stress. This stimulation paradigm was shown previously to increase synaptic transmission. The optogenetic set up consisted of an LED driver paired with a fiber-coupled LED light source attached to a bifurcated optogenetic path cable (400 μm, 0.49 NA; ThorLabs, Newton NJ, USA).
as §2, with “Social interaction was performed 24 hours following subthreshold social defeat or inescapable foot-shock stress. For the habituation phase, mice were” for “Social Interaction: Mice are”, “five minutes” for “five minute habituation phase”, “cages were” for “cages are”, “test was” for “test is”

male mice [2] = assay: Subthreshold social defeat stress followed by female urine sniffing test (anhedonia); conditions: for stress-induced anhedonia: chronic treatment (silastic implant or minipump), orchiectomized male mice + SSDS; for anhedonia (female urine preference): orchiectomized male mice
Protocol: as §1
Female Urine Preference Test: is performed 24 hours after the social interaction test as using previously described methods. The amount of time mice spent interacting with a cotton-tipped applicator soaked in either fresh male or female mouse urine during a total of 3 minutes is analyzed by an experimenter blind to the experimental groups.
as §3, §4, §5
FUST procedure was performed 24 hours after the social interaction test and 48 hours after stress. FUST was performed using previously described methods. The amount of time mice spent interacting with a cotton-tipped applicator soaked in either fresh male or female mouse urine during a total of 3 minutes was analyzed by an experimenter blind to the experimental groups.

[3] = Body, testis and seminal vesicle weights after hormonal treatments
Protocol: as §3
Subcutaneous implantations were performed during the same time as the orchiectomies. The surgical area was thoroughly cleaned with Betadine solution (10% povidone-iodine surgical scrub) followed by 70% ethanol. A small, approximately 1-cm incision was made between the scapulae using a pair of small sterile surgical scissors. Hemostats were then inserted and spread laterally to the incision to create a cavity in the subcutaneous space in which ALZET mini-osmotic pumps or silastic implants were inserted for continuous drug/vehicle delivery. The skin was closed with suturing.

male mice [4] = assay: Stress-moderated acquisition, extinction and reinstatement of fear; conditions: orchiectomized males + subthreshold SDS, 10 mm silastic implant
From the text: Determine the role of E2 in stress-moderated acquisition, extinction, and reinstatement of fear responses in males. Animal approaches to study PTSD should include an inescapable severe stressor. These experiments assess interactions between a stress and the effects of E2. […] For either result, it is critical to understand if E2 mediates interactions with stress. This is because the acquisition of fear is an adaptive response that is not considered pathological in and of itself. However, veterans have often encountered stressful circumstances that lead to an exaggerated and pathological state of fear, which is both resistant to extinction and highly susceptible to relapse. Considering that social stress is an important risk factor contributing toward the onset of PTSD in response to a traumatic event, the social defeat stress paradigm is utilized in order to model the conditions under which veterans develop PTSD. […] It is anticipated that sub-threshold SDS (rather than 10 day) paradigm is sufficient to induce effects in orchiectomized mice. […] Mice are assessed for social interaction deficits 24 hours after the subthreshold defeat sessions to determine if they are resilient or susceptible. n=18/mice per group is used to account for only a subset of mice being susceptible to stress. […]

[5] = acute administration 5 min after SSDS
[6] = acute s.c. administration 45 min prior to SSDS

Row | Compound | stress-induced social interaction deficits (male mice [1]) | maladaptive behaviors (social interaction, anhedonia) (male mice [1]; chronic treatment, gonadally intact or non-stressed mice) | stress-induced anhedonia (male mice [2]) | body weight ([3]; chronic treatment) | seminal vesicle weight ([3]; chronic treatment) | testis weight ([3]; chronic treatment) | stress effect on extinction of conditioned fear and reinstatement (male mice [4]) | social interaction (sociability) deficits (male mice [1]; [5]) | social interaction (sociability) deficits (male mice [1]; [6]) | stress-susceptible phenotype induced by low testosterone (male mice [1]; orchiectomized mice on low dose testosterone + SSDS) | anhedonia (female urine preference) (male mice [2]; [5]) | anhedonia (female urine preference) (male mice [2]; [6]) | relative seminal vesicle weights ([3]; s.c. treatment, compared to vehicle (saline) control)
1 | C[C@]12CC[C@H]3[C@@H](CCC4=CC(=O)CC[C@@]43C)[C@@H]1CC[C@@H]2O [Testosterone, testosterone] | reversed the observed maladaptive behaviors | no effect | reversed the observed maladaptive behaviors | increased body weight | reversed | decreased testis weight | reversed |  |  |  |  |  | 
2 | C[C@]12CC[C@@H]3c4ccc(O)cc4CC[C@H]3[C@@H]1CC[C@@H]2O [Example E2, 17β-Estradiol] | reversed the stress-induced social avoidance |  | reversed | increased body weight | increased |  | reversed | reversed only the anhedonia phenotype | prevented the development of both sociability deficits | completely recover the phenotype | reversed only the anhedonia phenotype | prevented | significant increase
